In US20250057993A1, “LABELED INHIBITORS OF PROSTATE SPECIFIC MEMBRANE ANTIGEN (PSMA), THEIR USE AS IMAGING AGENTS AND PHARMACEUTICAL AGENTS FOR THE TREATMENT OF PSMA-EXPRESSING CANCERS” (Universität Heidelberg, priority 2018, published 2025):
Where two headings read alike, the source gives them in different places. Each block holds one compound with its values, some of them ahead of it.

Assays:
PSMA [1] = molecular target: T1, PSMA (Homo sapiens, UniProt Q04609); assay: Competitive binding assay (Ki) on PSMA-positive C4-2 cells; parameters: host or cells: C4-2 cells; settings: non-labeled ligands vs 0.75 nM 68Ga-PSMA-HBED-CC dimer
T1 sequence (Q04609 whole entry): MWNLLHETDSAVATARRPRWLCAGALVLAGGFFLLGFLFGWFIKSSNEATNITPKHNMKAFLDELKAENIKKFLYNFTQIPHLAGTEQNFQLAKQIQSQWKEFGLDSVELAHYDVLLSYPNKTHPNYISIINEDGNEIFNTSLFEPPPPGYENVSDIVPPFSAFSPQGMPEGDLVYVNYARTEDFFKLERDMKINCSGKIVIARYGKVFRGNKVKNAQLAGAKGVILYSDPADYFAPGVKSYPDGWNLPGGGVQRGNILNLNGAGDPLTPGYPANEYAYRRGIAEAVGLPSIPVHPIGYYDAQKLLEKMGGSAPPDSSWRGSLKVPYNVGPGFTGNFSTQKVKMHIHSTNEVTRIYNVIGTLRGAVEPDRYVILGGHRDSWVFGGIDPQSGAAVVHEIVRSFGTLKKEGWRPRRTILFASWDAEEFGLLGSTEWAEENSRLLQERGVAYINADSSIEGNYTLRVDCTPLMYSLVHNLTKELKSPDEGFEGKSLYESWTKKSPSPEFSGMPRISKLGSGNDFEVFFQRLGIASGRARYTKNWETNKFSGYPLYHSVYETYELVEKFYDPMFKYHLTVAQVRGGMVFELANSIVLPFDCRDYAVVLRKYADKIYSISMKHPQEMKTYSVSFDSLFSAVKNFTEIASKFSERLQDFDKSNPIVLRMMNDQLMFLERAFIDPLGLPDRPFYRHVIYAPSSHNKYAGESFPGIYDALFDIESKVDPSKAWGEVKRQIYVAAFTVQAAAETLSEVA
Method: In vitro and in vivo experiments were performed using the PSMA-positive C4-2 cell line, a subline of the LNCaP (lymph node carcinoma of the prostate) cell line (CRL-3314; American Type Culture Collection). C4-2 cells were cultivated in RPMI 1640 (PAN Biotech) medium supplemented with 10% fetal calf serum and stable glutamine (PAN Biotech). Cells were grown at 37° C. and incubated with humidified air equilibrated with 5% CO2.
A MultiScreenHTS-DV filter plate was incubated at room temperature with 100 μl PBS containing 1% BSA per well for 30 min. After removal of the PBS/BSA solution 1×10^5 C4-2 cells were added Opti-MEM to each well. […] All non-labeled compounds were dissolved in Opti-MEM at a volume of 300 μl with the following concentrations: 0, 0.5, 1, 2.5, 5, 10, 25, 50, 100, 500, 1000 and 5000 nM. Subsequently, 3 μl of the radiolabeled compound was added. 50 μl of this mixture was taken to obtain a 0.75 nM concentration of the radiolabeled ligand. After 45 min incubation at 37° C., the cells were washed twice with PBS on a multiscreen vacuum manifold (Millipore, Billerica, MA) and the cell-bound radioactivity was measured with a gamma counter (Packard Cobra II, GMI, Minnesota, USA). The inhibitory potency was determined using ^68Ga-labeled PSMA-HBED-CC dimer (i.e. PSMA-11) as reference. The Ki was calculated using a nonlinear regression algorithm (Graph Pad Prism 5.01 software). The experiments were performed in quadruplicate.

C4-2 tumor = assay: Planar scintigraphic imaging of 203Pb-labeled compounds; assay type: in vivo, BALB/c nu/nu mice; settings: tail vein injection
Method: (§1) The in vivo experiments were carried out in accordance with the laws of the German Federal Republic. For PET imaging and biodistribution studies, male nude mice (Balb/c nu/nu mice) (19-23 g) were obtained from Charles River at 4-5 weeks of age and kept under specific-pathogen-free condition for 1 week prior to the study. The mice were housed with a 12-hour/12-hour light/dark cycle and had free access to water and food. The mice were anesthetized with 2% sevoflurane and inoculated subcutaneously on the right trunk with 5×10^7 C4-2 cells in 50% Matrigel in Opti-MEM I (1×) medium. Organ distribution studies were performed, when the size of the tumor was approximately 1 cm^3.
For small-animal imaging the mice were anesthetized with 2% sevoflurane. 0.1 nmol (1.0 MBq) of the ^203Pb-ligand was injected into the tail vein. Serial planar scans were performed using a Gamma Imager SCT (Biospace Lab, Paris, France) with a parallel collimator (35 mm/1.8 mm/0.2 mm) after 10 min, 1 h, 4 h, 24 h. and 72 h. Based on the imaging results, compound CA012 was chosen for biodistribution studies. Experiments were performed in triplicate.

[2] = Serum stability of 68Ga, 177Lu and 64Cu labeled compounds (iTLC, HPLC, pellet activity); assay type: in vitro ADME; settings: 177Lu-labeled, human serum, 24 h
Method: After radiolabeling of the compounds the serum stability was determined by iTLC and HPLC analysis. 50 μL (20 MBq) of the labeled ligands was added to 200 μL of human serum (H4522; Sigma-Aldrich, Germany) and incubated at 37° C. for different time-points (0, 2 h, 24 h, 48 h and 72 h). 0.5×5 cm strips of iTLC-SG-glass microfiber chromatography paper (Folsom, California USA) were used. 0.5 μL of the radiolabeled compound in serum was applied to each strip at 1 cm from the bottom (origin) and the solvent (sodium citrate buffer (0.5 M, pH=5.0) in case of ^177Lu ligands, (1% Na-EDTA, pH=4) in case of Cu labeled ligands) front was allowed to rise to 5 cm from the bottom. Finally, each strip was cut in 8 pieces; each piece was measured in a gamma-counter. For HPLC analysis an equal volume of ACN was added to the samples to precipitate the serum proteins. Subsequently, the samples were centrifuged for 10 min at 13,000 rpm and the pellet and supernatant were separated and the relative activity was measured. The results are expressed as percent. In addition, an aliquot of the supernatant was analyzed by radio-HPLC (0-100% ACN in 5 min, Monolith column), with a flow rate of 2 mL/min.

C4-2 tumor xenograft = assay: Small-animal PET in C4-2 tumor bearing mice; assay type: in vivo, BALB/c nu/nu mouse
Method: as §1
For small-animal PET imaging with various ^64Cu-labeled PSMA ligands, 0.2 nmol, 10 MBq of approximately 100 μL in 0.9% saline the radiolabeled compound were injected into a C4-2 tumor bearing mouse. The dynamic PET was recorded in a small animal PET scanner (Siemens Inveon D-PET, Malvern, PA USA). The SUV values were obtained from conventional (non-dynamic) PET images. The formula for the SUV was:
The volumes-of-interest (VOIs) were obtained by manual delineation of the appropriate whole tissue (heart, kidneys, bladder, tumor—with an approximate volume of 100-500 μl)—or parts of the tissue liver and muscle. […]

[3] = In vivo fate and metabolization of 64Cu-chloride and 64Cu-CA003 (PET, radio-HPLC of tissue extracts); parameters: species or system Swiss mice; settings: 10 min p.i., mouse without tumor
Method: The metabolization in vivo was studied by radio-HPLC analysis. Female Swiss mice (n=3) without tumor were injected via the tail vein with ^64Cu-chloride (10 MBq in approximately 100 μL of 0.9% saline) or ^64Cu-CA003 (9 MBq, 0.30 nmol in approximately 100 μL of 0.9% saline). PET imaging was performed 10 min post injection and subsequently blood, the liver and the kidneys were harvested. The tissues were rinsed with precooled saline, blotted dry and treated with 2 mL of 0.1 M NH4OAc/EtOH (35:65). The tissues were homogenized using an Ultra-Turrax T8 (IKA Labortechnik, Germany). The samples were centrifuged for 10 min at 13,000 rpm (4° C.). Subsequently, the pellet and supernatant were separated and the relative activity was measured. The results are expressed as percent. Additionally, an aliquot of supernatant was prepared for HPLC measurement by precipitation of the proteins with ACN as described above. The sample was analyzed by radio-HPLC (0-100% ACN in 5 min, Monolith column), with a flow rate of 2 mL/min. Fractions were collected every ten seconds over the whole course of the chromatography and the relative activity of the samples was measured in a gamma-counter to reconstruct a chromatogram.

PSMA [4] = molecular target: T1, PSMA; parameters: PET/CT imaging in first patients was performed; from tissue; host or cells: tissues and tumour lesions of prostate cancer patients (in vivo PET/CT); settings: values from Afshar-Oromieh et al., 2015, cited from earlier work
[5] = In vivo metabolite analysis of 177Lu-labeled ligands (radio-HPLC of tissue extracts); parameters: species or system BALB/c nude mouse; settings: 1 h p.i., 10 MBq, 0.2 nmol
Method: FIG. 24. In vivo metabolite analysis of ^177Lu-CA028 in comparison with ^177Lu-PSMA-617 (10 MBq, 0.2 nmol in approximately 100 μl of 0.9% saline) in a BALB/c nude mouse (tumor) at 1 h p.i. […] This proves the integrity of the complex within the main distribution period.

Ki / binding affinity to PSMA (in words) (PSMA [1]): particularly high affinity
Structure (SMILES): O=C(O)CCC(NC(=O)NC(CCCCNC(=O)C(Cc1ccc2ccccc2c1)NC(=O)C1CCC(CNC(=O)c2ccc(CN3CCCNCCNCCCNCC3)cc2)CC1)C(=O)O)C(=O)O (centres unmarked) [CA003]

Ki / binding affinity to PSMA (in words) (PSMA [1]): highest affinity
Structure (SMILES): NC(=O)CN1CCN(CC(N)=O)CCN(CC(N)=O)C(Cc2ccc(NC(=S)NCC3CCC(C(=O)NC(Cc4ccc5ccccc5c4)C(=O)NCCCCC(NC(=O)NC(CCC(=O)O)C(=O)O)C(=O)O)CC3)cc2)CN(CC(N)=O)CC1 (centres unmarked) [CA009]
tumor uptake / retention in planar scintigraphy (in words) (C4-2 tumor): high uptake of the tracer in the tumor tissue

Ki / binding affinity to PSMA (in words) (PSMA [1]): highest affinity
Structure (SMILES): NC(=O)CN1CCN(CC(N)=O)CCN(CC(=O)NCC2CCC(C(=O)NC(Cc3ccc4ccccc4c3)C(=O)NCCCCC(NC(=O)NC(CCC(=O)O)C(=O)O)C(=O)O)CC2)CCN(CC(N)=O)CC1 (centres unmarked) [CA012]
tumor uptake / retention in planar scintigraphy (in words) (C4-2 tumor): high uptake of the tracer in the tumor tissue

free 177Lu [2]: no free activity
Structure (SMILES): O=C(O)CCC(NC(=O)NC(CCCCNC(=O)C(Cc1ccc2ccccc2c1)NC(=O)C1CCC(CNC(=S)Nc2ccc(CC3CN(CC(=O)O)CCN(CC(=O)O)CCN(CC(=O)O)CCN3CC(=O)O)cc2)CC1)C(=O)O)C(=O)O (centres unmarked) [CA029]

free 177Lu [2]: no free activity
Structure (SMILES): O=C(O)CC[C@H](NC(=O)N[C@@H](CCCCNC(=O)[C@H](Cc1ccc2ccccc2c1)NC(=O)[C@H]1CC[C@H](CNC(=O)CN2CCN(CC(=O)O)CCN(CC(=O)O)CCN(CC(=O)O)CC2)CC1)C(=O)O)C(=O)O [PSMA-617]

tumor-to-liver ratio (C4-2 tumor xenograft; 2 h): 0.38
tracer accumulation in PET images (in words) (C4-2 tumor xenograft; C4-2 tumour bearing mice): very high liver accumulation
blood circulation, maximum intensity projection PET [3]: 1.3
kidney uptake, maximum intensity projection PET [3]: 3.4
liver uptake, maximum intensity projection PET [3]: 2.7
Structure (SMILES): [64Cu+2].[Cl-].[Cl-] [^64Cu-chloride]

Structure (SMILES): O=C([O-])CN1CCN(CC(=O)[O-])CCN(CC(=O)NCC2CCC(C(=O)N[C@@H](Cc3ccc4ccccc4c3)C(=O)NCCCC[C@H](NC(=O)N[C@@H](CCC(=O)O)C(=O)O)C(=O)O)CC2)CCN(CC(=O)[O-])CC1.[68Ga+3] (some centres unmarked) [^68Ga-PSMA-617]
SUVmean Blood pool, mediastinal (PSMA [4]; 1 h): 2.5
SUVmean Bone met (PSMA [4]; 1 h): 9.4
SUVmean Colon (PSMA [4]; 1 h): 3.5
SUVmean Gluteal muscle (PSMA [4]; 1 h): 0.7
SUVmean Kidneys (PSMA [4]; 1 h): 15.6
SUVmean Lacrimal gland (PSMA [4]; 1 h): 4.9
SUVmean Liver (PSMA [4]; 1 h): 3.3
SUVmean Lymph node (PSMA [4]; 1 h): 7.1
SUVmean Nasal mucosa (PSMA [4]; 1 h): 2.9
SUVmean Parotid gland (PSMA [4]; 1 h): 10.4
SUVmean Prox. Small intestine (PSMA [4]; 1 h): 4.7
SUVmean Spleen (PSMA [4]; 1 h): 4.3
SUVmean Sublingual gland (PSMA [4]; 1 h): 4.6
SUVmean Submandibular gland (PSMA [4]; 1 h): 10
SUVmean Blood pool, mediastinal (PSMA [4]; 3 h): 2.4
SUVmean Bone met (PSMA [4]; 3 h): 6.3
SUVmean Colon (PSMA [4]; 3 h): 4.0
SUVmean Gluteal muscle (PSMA [4]; 3 h): 0.7
SUVmean Kidneys (PSMA [4]; 3 h): 17.0
SUVmean Lacrimal gland (PSMA [4]; 3 h): 5.9
SUVmean Liver (PSMA [4]; 3 h): 2.7
SUVmean Lymph node (PSMA [4]; 3 h): 13.5
SUVmean Nasal mucosa (PSMA [4]; 3 h): 3.4
SUVmean Parotid gland (PSMA [4]; 3 h): 13.1
SUVmean Prox. Small intestine (PSMA [4]; 3 h): 5.5
SUVmean Spleen (PSMA [4]; 3 h): 3.5
SUVmean Sublingual gland (PSMA [4]; 3 h): 4.0
SUVmean Submandibular gland (PSMA [4]; 3 h): 12.4

Structure (SMILES): O=C([O-])CN1CCN(CC(=O)[O-])CCN(CC(=O)NCC2CCC(C(=O)N[C@@H](Cc3ccc4ccccc4c3)C(=O)NCCCC[C@H](NC(=O)N[C@@H](CCC(=O)O)C(=O)O)C(=O)O)CC2)CCN(CC(=O)[O-])CC1.[177Lu+3] (some centres unmarked) [^177Lu-PSMA-617]
integrity of tracer in extracts from kidney, blood, liver and tumor (radio-HPLC) [5]: activity elutes at the retention time of the intact tracer
